Results on four compounds are retold here after patent publication US9204645B2, “Insecticidal aromatic amides” (BAYER INTELLECTUAL PROPERTY GMBH, priority 2011, dated 2015).

Common to all, as to type: in vivo
Experiment [1] deals with greenhouse red spider mite (Tetranychus urticae). In words: Tetranychus urticae spray test, OP-resistant (TETRUR), bean plants. The settings on record: 168 h, 7 dat. The method, then:
Tetranychus urticae—Spray Test, OP-resistant (TETRUR) • Solvent: 7 parts by weight of dimethylformamide • Emulsifier: 2 parts by weight of alkylaryl polyglycol ether
To produce a suitable preparation of active compound, 1 part by weight of active compound is mixed with the stated amounts of solvent and emulsifier, and the concentrate is diluted with emulsifier-containing water to the desired concentration. If the addition of ammonium salts or/and penetrants is required, these are in each case added in a concentration of 1000 ppm to the solution of the preparation.
Bean plants (Phaseolus vulgaris) which are heavily infested by all stages of the greenhouse red spider mite (Tetranychus urticae) are sprayed with an active compound preparation of the desired concentration.
(§1) After the desired period of time, the effect in % is determined. 100% means that all of the spider mites have been killed; 0% means that none of the spider mites have been killed.

For experiment [2] the test system is unchanged. In words: Tetranychus urticae drench test, OP-resistant, systemic treatment (TETRUR sys.). The settings on record: soil, 336 h, 14 dat. The method, then:
Tetranychus urticae—Drench Test, OP-resistant, systemic treatment (TETRUR sys.)
• Solvent: 7 parts by weight of dimethylformamide • Emulsifier: 2 parts by weight of alkylaryl polyglycol ether
To produce a suitable preparation of active compound, 1 part by weight of active compound is mixed with the stated amounts of solvent and emulsifier, and the concentrate is diluted with water to the desired concentration. If the addition of ammonium salts or/and penetrants is required, these are in each case added in a concentration of 1000 ppm to the solution of the preparation.
Bean plants (Phaseolus vulgaris) which are heavily infested by all stages of the greenhouse red spider mite (Tetranychus urticae) are watered with an active compound preparation of the desired concentration.
as §1

For experiment [3], the system named is larvae of the mustard beetle (Phaedon cochleariae). Briefly: Phaedon cochleariae spray test (PHAECO). The conditions noted are these: for inhibition at 100 g/ha: Phaedon cochleariae, 168 h, PHAECO, 7 dat. The method, then:
Phaedon Cochleariae—Spray Test (PHAECO)
(§2) • Solvents: 78.0 parts by weight of acetone • 1.5 parts by weight of dimethylformamide • Emulsifier: 0.5 part by weight of alkylaryl polyglycol ether
(§3) To produce a suitable preparation of active compound, 1 part by weight of active compound is mixed with the stated amounts of solvents and emulsifier, and the concentrate is diluted with emulsifier-containing water to the desired concentration.
After the desired period of time, the effect in % is determined 100% means that all of the beetle larvae have been killed; 0% means that none of the beetle larvae have been killed.

Experiment [4] deals with caterpillars of the armyworm (Spodoptera frugiperda). Briefly: Spodoptera frugiperda spray test (SPODFR). The conditions noted are these: 168 h, 7 dat. The method, then: Spodoptera frugiperda—Spray Test (SPODFR)
• Solvents: 78.0 parts by weight of acetone • 1.5 parts by weight of dimethylformamide • Emulsifier: 0.5 part by weight of alkylaryl polyglycol ether • To produce a suitable preparation of active compound, 1 part by weight of active compound is mixed with the stated amounts of solvents and emulsifier, and the concentrate is diluted with emulsifier-containing water to the desired concentration.
Leaf discs of maize (Zea mays) are sprayed with an active compound preparation of the desired concentration and, after drying, populated with caterpillars of the armyworm (Spodoptera frugiperda).
After the desired period of time, the effect in % is determined. 100% means that all of the caterpillars have been killed; 0% means that none of the caterpillars have been killed.

For experiment [5], the system named is greenhouse red spider mite (Tetranychus urticae). Briefly: Tetranychus urticae spray test, OP-resistant (TETRUR), bean leaf discs. The conditions noted are these: Tetranychus urticae, foliar, 144 h; TETRUR, 500 g/ha, 6 dat; read-out: % Activity. The method, then:
Tetranychus urticae—Spray Test; OP-resistant (TETRUR)
as §2, §3
Discs of bean leaves (Phaseolus vulgaris) which are infested by all stages of the greenhouse red spider mite (Tetranychus urticae) are sprayed with an active compound preparation of the desired concentration.
as §1

For experiment [6], the system named is green peach aphid (Myzus persicae). Briefly: Myzus spray test (MYZUPE). The conditions noted are these: Myzus persicae, 144 h; MYZUPE, 500 g/ha, 6 dat. The method, then:
Myzus—Spray Test (MYZUPE)
as §2, §3
Discs of Chinese cabbage leaves (Brassica pekinensis) infested by all stages of the green peach aphid (Myzus persicae) are sprayed with an active compound preparation of the desired concentration.
After the desired period of time, the effect in % is determined. 100% here means that all of the aphids have been killed; 0% means that no aphids have been killed.

As to `CCNC(=O)c1cc(NC(=O)c2c(C(F)(F)F)c(C(F)(F)C(F)(F)F)nn2C)ccc1Cl` [Example Ik-66, reference compound], the inhibition at 20 ppm in experiment [1] is 0%; in experiment [2], 30%.
With `CCC(=O)NCc1c(F)ccc(NC(=O)c2c(C(F)(F)F)c(C(F)(F)C(F)(F)F)nn2C)c1F` [Example 6], the “efficacy compared to similar compounds of the prior art” value in experiment [3] (PHAECO spray test) is “superior efficacy”. The inhibition at 100 g/ha in experiment [3] and in experiment [4] was 100% in each case.
In the case of `CC(=O)NCc1cc(NC(=O)c2c(C(F)(F)F)c(C(F)(F)C(F)(F)F)nn2C)ccc1F` [Example 13], the inhibition at 20 ppm in experiment [1] was determined as 30%; in experiment [2], 90%.
With `CC(C)NC(=O)c1c(F)ccc(NC(=O)c2c(C(F)(F)F)c(C(F)(F)C(F)(F)F)nn2C)c1F` [Example Ik-74, reference compound], the inhibition at 500 g/ha in experiment [5] and in experiment [6] was 0% throughout. Also, the figures for the inhibition at 100 g/ha in experiment [3] and in experiment [4] were 33% and 0%, respectively.
